One may read the IC50 as the midpoint of a concentration-inhibition curve.

Chain of Recombinant human cathepsin S (CatS) (P25774 115-331): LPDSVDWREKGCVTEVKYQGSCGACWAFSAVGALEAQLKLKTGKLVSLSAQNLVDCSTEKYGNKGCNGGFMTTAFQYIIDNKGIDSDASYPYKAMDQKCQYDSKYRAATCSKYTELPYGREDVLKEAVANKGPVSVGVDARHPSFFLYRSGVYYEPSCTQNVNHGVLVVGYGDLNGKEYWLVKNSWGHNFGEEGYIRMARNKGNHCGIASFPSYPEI

The first assay addresses Recombinant human cathepsin S (CatS) (Homo sapiens, UniProt P25774). Description: Recombinant human cathepsin S (CatS) inhibition assay, fluorogenic substrate Z-Valine-Valine-Arginine-AMC.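 Further: Baculovirus-expressed CatS in pH 5.0 sodium acetate buffer with DTT and NaCl, fluorescence read each minute over 20 min, inhibition derived from rate slope.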
Settings: not given
In the case of `COC(=O)C1Cc2cc(C#Cc3cc(-c4nn(CCCN5CCOCC5)c5c4CN(S(C)(=O)=O)CC5)ccc3Cl)ccc2CN1C(=O)OC(C)(C)C` (stereo not shown) [Example 203, 2-(1,1-Dimethylethyl) 3-methyl 6-({2-chloro-5-[5-(methylsulfonyl)-1-(3-morpholin-4-ylpropyl)-4,5,6,7-tetrahydro-1H-pyrazolo[4,3-c]pyridin-3-yl]phenyl}ethynyl)-3,4-dihydroisoquinoline-2,3(1H)-dicarboxylate], the half-maximal inhibitory concentration (IC50) is 570 nM. Consider `CC(C)(C)OC(=O)NC1CCN(CC(O)Cn2nc(-c3ccc(Cl)c(C#Cc4ccc(Cl)cc4)c3)c3c2CCN(S(C)(=O)=O)C3)CC1` (stereo not shown) [Example 130, [1-(3-{3-[4-Chloro-3-(4-chloro-phenylethynyl)-phenyl]-5-methanesulfonyl-4,5,6,7-tetrahydro-pyrazolo[4,3-c]pyridin-1-yl}-2-hydroxy-propyl)-piperidin-4-yl]-carbamic acid tert-butyl ester], for which the IC50 is 80 nM. On the same count and under the same terms, under `CS(=O)(=O)N1CCc2c(c(-c3ccc(Cl)c(CCCCO)c3)nn2CCCN2CCC(N3CCCC3=O)CC2)C1` [Example 311, 1-[1-(3-{3-[4-Chloro-3-(4-hydroxybutyl)phenyl]-5-(methylsulfonyl)-4,5,6,7-tetrahydro-1H-pyrazolo[4,3-c]pyridin-1-yl}propyl)piperidin-4-yl]pyrrolidin-2-one] stands 1350 nM; under `NC(=O)N1CCc2c(c(-c3ccc(Cl)c(C#Cc4ccc(COCc5cccnc5)cc4)c3)nn2CCCN2CCSCC2)C1` [Example 161, 3-{4-Chloro-3-[(4-{[(pyridin-3-ylmethyl)oxy]methyl]phenyl)ethynyl]phenyl}-1-(3-thiomorpholin-4-ylpropyl)-1,4,6,7-tetrahydro-5H-pyrazolo[4,3-c]pyridine-5-carboxamide], 70 nM. Still for that read-out and setting: under `C[C@H]1COCCN1CCCn1nc(-c2ccc(Cl)c(C#Cc3ccc4c(c3)CN(C3CC3)CC4)c2)c2c1CCN(C(N)=O)C2` [Example 282, 3-{4-Chloro-3-[(2-cyclopropyl-1,2,3,4-tetrahydroisoquinolin-7-yl)ethynyl]phenyl}-1-{3-[(3S)-3-methylmorpholin-4-yl]propyl}-1,4,6,7-tetrahydro-5H-pyrazolo[4,3-c]pyridine-5-carboxamide] stands 150 nM; under `CN(Cc1ccccc1)Cc1ccc(C#Cc2cc(-c3nn(CCCN4CCOCC4)c4c3CN(S(C)(=O)=O)CC4)ccc2Cl)cc1` [Example 77, Benzyl-(4-{2-chloro-5-[5-methanesulfonyl-1-(3-morpholin-4-yl-propyl)-4,5,6,7-tetrahydro-1H-pyrazolo[4,3-c]pyridin-3-yl]-phenylethynyl}-benzyl)-methyl-amine], 640 nM. For `CC(=O)NCC(=O)N1CCc2c(c(-c3ccc(Cl)c(C#Cc4ccc(CNCc5ccc(Cl)cc5)cc4)c3)nn2CCCN2CCOCC2)C1` [Example 499, N-{2-[3-(4-Chloro-3-{[4-({[(4-chlorophenyl)methyl]amino}methyl)phenyl]ethynyl}phenyl)-1-(3-morpholin-4-ylpropyl)-1,4,6,7-tetrahydro-5H-pyrazolo[4,3-c]pyridin-5-yl]-2-oxoethyl}acetamide], the IC50 came to 160 nM.

For the compound `C[C@H]1COCCN1CCCn1nc(-c2ccc(Cl)c(C#Cc3ccc(Cl)c(CNC[C@H]4CCCO4)c3)c2)c2c1CCN(C(=O)C(N)=O)C2` [Example 268, 2-{3-[4-Chloro-3-(4-chloro-3-{[((2R)-tetrahydro-furan-2-ylmethyl)-amino]-methyl}-phenylethynyl)-phenyl]-1-[3-((3S)-3-methyl-morpholin-4-yl)-propyl]-1,4,6,7-tetrahydro-pyrazolo[4,3-c]pyridin-5-yl}-2-oxo-acetamide], the IC50 was 20 nM. With `NC(=O)N1CCc2c(c(-c3ccc(Cl)c(CCc4ccc(Cl)cc4)c3)nn2CCCN2CCOCC2)C1` [Example 145, 3-{4-Chloro-3-[2-(4-chloro-phenyl)-ethyl]-phenyl}-1-(3-morpholin-4-yl-propyl)-1,4,6,7-tetrahydro-pyrazolo[4,3-c]pyridine-5-carboxylic acid amide], the IC50 worked out at 90 nM. Same read-out and setting: under `CS(=O)(=O)N1CCc2c(c(-c3ccc(Cl)c(C#Cc4ccc(CNCc5ccc(Cl)cc5)cc4)c3)nn2CCCN2CCC(c3ccccn3)CC2)C1` [Example 177, 1-{4-[(2-Chloro-5-{5-(methylsulfonyl)-1-[3-(4-pyridin-2-ylpiperidin-1-yl)propyl]-4,5,6,7-tetrahydro-1H-pyrazolo[4,3-c]pyridin-3-yl}phenyl)ethynyl]phenyl}-N-[(4-chlorophenyl)methyl]methanamine] stands 10 nM.

Still in this assay, the particulars now being: CatS IC50.
As for `CC(C)(C)OC(=O)N1Cc2ccc(C#Cc3cc(-c4nn(CCCN5CCOCC5)c5c4CN(S(C)(=O)=O)CC5)ccc3Cl)cc2C1` [Example 392, 1,1-Dimethylethyl 5-({2-chloro-5-[5-(methylsulfonyl)-1-(3-morpholin-4-ylpropyl)-4,5,6,7-tetrahydro-1H-pyrazolo[4,3-c]pyridin-3-yl]phenyl}ethynyl)-1,3-dihydro-2H-isoindole-2-carboxylate], the IC50 amounted to 180 nM. On to `C[C@H]1COCCN1C[C@@H](O)Cn1nc(-c2ccc(Cl)c(C#Cc3ccc(CNCc4ccc(Cl)cc4)cc3)c2)c2c1CCN(S(C)(=O)=O)C2` [Example 529, (2R)-1-[3-(4-Chloro-3-{[4-({[(4-chlorophenyl)methyl]amino}methyl)phenyl]ethynyl}phenyl)-5-(methylsulfonyl)-4,5,6,7-tetrahydro-1H-pyrazolo[4,3-c]pyridin-1-yl]-3-[(3S)-3-methylmorpholin-4-yl]propan-2-ol], for which the IC50 was determined as 120 nM. Regarding `CS(=O)(=O)N1CCc2c(c(-c3ccc(Cl)c(C#Cc4cccs4)c3)nn2CCCN2CCOCC2)C1` [Example 12, 3-(4-Chloro-3-thiophen-2-ylethynyl-phenyl)-5-methanesulfonyl-1-(3-morpholin-4-yl-propyl)-4,5,6,7-tetrahydro-1H-pyrazolo[4,3-c]pyridine], the concentration for half-maximal inhibition (IC50) was determined as 790 nM. Turning to `CS(=O)(=O)N1CCc2c(c(-c3ccc(Cl)c(C#Cc4ccc5c(c4)CN[C@@H](CO)C5)c3)nn2CCCN2CCOCC2)C1` [Example 201, [(3R)-7-({2-Chloro-5-[5-(methylsulfonyl)-1-(3-morpholin-4-ylpropyl)-4,5,6,7-tetrahydro-1H-pyrazolo[4,3-c]pyridin-3-yl]phenyl}ethynyl)-1,2,3,4-tetrahydroisoquinolin-3-yl]methanol], the concentration for half-maximal inhibition (IC50) turned out to be 190 nM. Turning to `CC(C)(C)C1CCN(CCCn2nc(-c3ccc(Cl)c(C#Cc4ccc(CNCc5ccc(Cl)cc5)cc4)c3)c3c2CCN(S(C)(=O)=O)C3)CC1` [Example 372, 1-[4-({2-Chloro-5-[1-{3-[4-(1,1-dimethylethyl)piperidin-1-yl]propyl}-5-(methylsulfonyl)-4,5,6,7-tetrahydro-1H-pyrazolo[4,3-c]pyridin-3-yl]phenyl}ethynyl)phenyl]-N-[(4-chlorophenyl)methyl]methanamine], the IC50 stood at 60 nM. `CC(C)(C)OC(=O)N1CCC(C2CCN(C[C@H](O)Cn3nc(-c4ccc(Cl)c(C#Cc5ccccn5)c4)c4c3CCN(S(C)(=O)=O)C4)CC2)CC1` [Example 234, 1,1-Dimethylethyl 1′-[(2S)-3-{3-[4-chloro-3-(pyridin-2-ylethynyl)phenyl]-5-(methylsulfonyl)-4,5,6,7-tetrahydro-1H-pyrazolo[4,3-c]pyridin-1-yl}-2-hydroxypropyl]-4,4′-bipiperidine-1-carboxylate]: the IC50 is 280 nM.

Source of the values: patent US20080200454A1, “CARBON-LINKED TETRAHYDRO-PYRAZOLO-PYRIDINE MODULATORS OF CATHEPSIN S” (priority 2007, published 2008).
